Source: PMC12308784, “Organometallic Half-Sandwich Complexes of 1,10-Phenanthroline Derivatives with Improved Solubility, Albumin-Binding, and Nanoformulation Potential Targeting Drug Resistance in Cancer” (Inorganic Chemistry, 2025)

What was measured:
[1] = biological target: T1, human serum albumin (HSA) (Homo sapiens, UniProt P02768); test: HSA binding by capillary zone electrophoresis (CZE); settings: for equiv of complex bound on HSA: CZE
T1 construct: purchased Sigma-Aldrich A8763
Description: UV–vis is a simple technique to follow the interaction of half-sandwich metal complexes with HSA in time. Charge transfer bands of the complexes were monitored over a 12 h period (as shown for the RhCp*BP – HSA (1.5:1) system in Figure S16). An initial rapid spectral change can be observed, which is followed by a slower spectral evolution. This phenomenon may indicate (i) a rapid binding interaction followed by a slow rearrangement of the coordination sphere around the Rh center or (ii) that the differing accessibility of binding sites results in biphasic binding kinetics. […] In contrast, minimal spectral changes were detected for the RuCym complexes. […] To further substantiate this observation, CZE was applied. In Figure , the peak of the free RhCp*BP complex is clearly separated from the peaks of the comigrating protein and the protein-bound complex. […] Whereas ca. 50% of the complex is protein-bound after the first 5 min, the equilibration takes ca. 3–4 h. This observation confirms that the accessibility of binding sites for the complexes is not equal in HSA.
6 (a) Electropherograms of the RhCp*BP complex in the absence and presence of 0.5 equiv HSA at pH = 7.4 followed in time and (b) the relative peak area of free RhCp*BP at 210 nm (migration time: 7.4 min) as a function of incubation time. {c complex = 95 μM, c HSA = 48 μM; U = 8 kV; current = 105 μA; PBS’; t = 25 °C}.
The interaction of complex [RhCp*(BP)-Cl]Cl (ca. 100 μM) with HSA (ca. 50 μM) in PBS’ medium was studied by an Agilent 7100 capillary electrophoresis system equipped with a diode-array UV–vis detector (200–600 nm). Fused silica capillaries of 48 cm total length with a 75 μm inner diameter were used (Agilent Technologies). The background electrolyte (BGE) was PBS’ buffer (pH = 7.4), in which the samples were also made. The conditioning process of new capillaries and daily preparation were performed as described formerly. In order to ensure a steady baseline, the capillary was flushed with BGE (2 min) before each run and was rinsed with NaOH (0.1 M; 1.5 min), H2O (1.5 min), and then with BGE (2 min) after each run. The capillary cassette was kept at 25 °C. The hydrodynamic injection was used at 50 mbar for 5 s injection time. For separation, an 8 kV voltage (with ca. 100 μA current) was applied. The sample run time was set to 18 min. The computer program ChemStation (Agilent) was used to record electropherograms.

[2] = time-dependent stability in PBS’ by UV–vis and 1H NMR; assay type: physicochemical; settings: pH 7.4, 100 mM chloride
Description: As a first step, time-dependent stability measurements were conducted by UV–visible (UV–vis) for all the metal complexes (Figure S13), focusing on their stability in a modified phosphate buffer saline (PBS’) medium to mimic conditions relevant to intravenous applications regarding the pH (7.4) and the chloride ion concentration (100 mM). […] Unfortunately, determining the equilibrium constants for direct complex formation was not possible due to the poor solubility of the ligands in water. […] The robust stability of the analogous IrCp* complexes was also reported.
Figure S14. Time-dependent UV -Vis spectra of metal complexes (a) cRuCymBP = 69 µM; (b) cRhCp*BP =
66 µM; (c) cRuCymDCP = 99 µM; (d) cRhCp*DCP = 85 µM) in PBS' buffer over 24 h (a-d). Spectra were recorded
Figure S15. Time-dependent 1H NMR spectra of metal complex RhCp*BP (66 µM) at pH 7.40 over 5 days.
{10% (v/v) D2O / 90% (v/v) H2O; PBS’; t = 25 °C} […]

[3] = release in PBS’ by modified equilibrium dialysis; assay type: physicochemical; settings: nonformulated complex, PBS’ pH 7.4
Description: The release behavior of RhCp*BP in PBS’ buffer (pH = 7.4) was monitored using a modified equilibrium dialysis device (Figures S22 and S23), and the absorbance (proportional to the complex concentration) was measured for the dialysate phase by online UV–vis spectrophotometry over a period of 16 h.
The release experiments were conducted in PBS’ medium using modified rapid equilibrium dialysis (RED) inserts of Thermo Scientific. Briefly, the receiver compartment of the RED insert was removed in order to fit the dialysis bag into a regular 1 cm quartz cuvette (see Figure S19 for the layout). The dialysis bag (donor compartment) contained 300 μL of aqueous solution of the formulation or the metal complex alone (c = 60 μM) or the HSA or HTP-based formulations. The cuvette was the acceptor/receiver compartment containing PBS’ buffer (2.0 mL). The whole device was capped with the parafilm and the buffer in the cuvette was continuously stirred; no stirring was applied in the RED insert. The release of the complex into the buffer was monitored online using an Agilent Cary 3500 eight-channel photometer. All samples were done in duplicate.

[4] = 0.5 equiv HSA, PBS’ pH 7.4, 25 °C
[5] = c complex = 95 μM, c HSA = 48 μM, PBS’ pH 7.4, 25 °C

T1 sequence (P02768 25-609): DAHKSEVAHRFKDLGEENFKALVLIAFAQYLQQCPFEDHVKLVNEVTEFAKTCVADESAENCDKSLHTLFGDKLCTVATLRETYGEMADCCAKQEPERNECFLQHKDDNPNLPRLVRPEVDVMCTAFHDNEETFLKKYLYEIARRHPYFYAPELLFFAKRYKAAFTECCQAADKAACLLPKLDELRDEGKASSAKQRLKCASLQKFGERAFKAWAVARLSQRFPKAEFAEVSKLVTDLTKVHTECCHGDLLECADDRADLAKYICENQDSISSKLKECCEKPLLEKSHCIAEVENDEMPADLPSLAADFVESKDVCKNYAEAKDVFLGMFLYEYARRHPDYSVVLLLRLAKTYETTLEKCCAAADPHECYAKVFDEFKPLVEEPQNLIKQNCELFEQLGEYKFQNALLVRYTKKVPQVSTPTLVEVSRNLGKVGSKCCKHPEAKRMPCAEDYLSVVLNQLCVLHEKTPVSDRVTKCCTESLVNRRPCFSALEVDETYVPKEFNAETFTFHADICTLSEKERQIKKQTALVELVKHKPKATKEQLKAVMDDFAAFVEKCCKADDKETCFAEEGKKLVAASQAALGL

Compound: Cc1c(C)c(C)[c-](C)c1C.Clc1ccnc2c1ccc1c(Cl)ccnc12.[Cl-].[Cl-].[Rh+3] [RhCp*DCP, [Rh(III)(η^5-C5Me5)(4,7-dichloro-1,10-phenanthroline)Cl]Cl]
- metal complex unbound after 24 h [1, 4]: 21%
- equiv of complex bound on HSA [1]: at least 2 equiv

Compound: [Rh(III)(η^5-C5Me5)(bathophenanthroline)Cl]Cl [RhCp*BP]
- stability in PBS’ over 24 h [2]: no changes
- time for complete diffusion into PBS’ medium [3]: approximately 9 h
- free complex after 4 h [1, 4]: 7%
- equiv of complex bound on HSA [1]: at least 2 equiv
- complex protein-bound after the first 5 min [1, 5]: ca. 50%
- equilibration time of HSA binding [1, 5]: 3 to 4 h
